In patent publication US20060123501A1, “Method for treating inflammatory disorders” (priority 2004, published 2006):
Where two headings read alike, the source gives them in different places.

Tests used:
[1] = test system: cIAP2−/− and control mice
Text: In addition, we exposed cIAP2^−/− mice to a second mode of LPS-induced toxicity, where treatment with D-galactosamine (DGLBN) sensitized mice to endotoxic shock.

[2] = test system: peritoneal- and splenic-derived macrophages; experiment: Percentage and apoptotic status (Annexin V) of peritoneal and splenic macrophages after i.p. LPS; assay type: in vivo, mouse
Procedure: To determine the apoptotic sensitivity of cIAP2^−/− macrophages within an LPS-induced pro-inflammatory environment, the peritoneal macrophage cell numbers before and during an endotoxin-elicited response were assessed by trypan blue exclusion, Diff Quik™ staining kit and flow cytometry (using the macrophage marker PE conjugated α-F4/80 antibody). […] However, total lymphocyte cell count numbers (B and T cells) were comparatively unaffected in both animal types (FIG. 5D). In addition, at 5 hours post LPS injection both the peritoneal and splenic macrophages from cIAP2^−/− mice stained ˜100% positive for Annexin V (Table 5). Therefore, peritoneal and splenic macrophages from cIAP2^−/− mice undergoing LPS-induced endotoxic shock were highly sensitive to apoptotic stimuli compared to control littermates, in vivo. Liver-derived macrophages are key mediators of LPS-induced endotoxic shock (7, 12). Therefore, to further investigate the survival status of macrophages within LPS treated cIAP2^−/− mice we examined cell count levels of liver-derived macrophages within liver sections. Macrophage cell count numbers within both cIAP2^−/− and control mice were similar at 2 hours post-IP LPS treatment (FIG. 6A), 235+/−35 and 271+/−29, respectively (n=5, average of 3 sections (average of 5 fields per section) per mouse, P<0.01). However, at the 6 hour time point (FIG. 6B), there was a precipitous drop of liver-derived macrophages of the cIAP2^−/− mice, 21+/−12 versus that of the littermates, 148+/−19 (n=5, average of 3 sections (average of 5 fields per section) per mouse, P<0.01). Therefore, like peritoneal and splenic macrophages, the liver-derived macrophages from cIAP2^−/− are highly sensitive to LPS in vivo.
Adult 4-6 week old mice (n=6) were injected i.p. with LPS (35 mg LPS/kg) at time 0 and 5 hours the mice were euthanized and the cells of the peritoneum were collected and stained to determine macrophage, T and B cell percentages. The macrophages were also stained with FITC labeled Annexin V (Immunotech, Marseille, France) to determine apoptotic status.
T and B cells were isolated from mouse lymphoid tissue (spleen) by first mincing and then pressing the tissue through a 10 μm metal mesh and were then counted by using trypan blue exclusion method. Macrophages were harvested from mice using an inter-peritoneal (i.p.) lavage ([…]: 5% FCS, 50 μM β-mercaptoethanol, […] L-glutamine, penicillin and streptomycin, at 4° C.) and washed once (centrifuged at 800 Xg for 15 min) and resuspended at ˜2×10^7 cells/ml for peritoneal macrophages. Subsequently, peritoneal macrophages were layered on 5 ml of room temperature Lympholyte-M (CedarLane, Canada) and centrifuged at 1500×g for 20 min at room temperature. For splenic macrophages 3 ml of the minced and pressed tissue (˜2×10^7 splenocytes/ml) was layered on 5 ml of room temperature Lympholyte-M (CedarLane, Canada) and centrifuged at 1500×g for 20 min at room temperature. Subsequently, either peritoneal or spleen-derived macrophages were collected from the interface layer, washed twice with complete DMEM and re-suspend in 1 ml complete DMEM. The resulting cells were then counted by using typan blue exclusion and Diff Quik™ Stain Kit (IMEB INC, San Marcos, Calif.). Cells (10^5-10^6) were incubated with the following conjugated monoclonal antibodies: α-CD3ε-flourescein isohiocyanate (FITC), CD4-phycoerythin (PE), CD8α-Cy-Chrome, CD69-PE; B229-FITC, B220-PE, CD11b-Cy-Chrome, (Pharmigen) F4/80-FITC and F4/80PE (Cedarlane Laoratories, Hornby, ON, Canada). Flow cytometric analyses were performed on a Coulter XL cytometer (Coulter, Canada). Concentrations of TNF-α and IL-1β, in primary tissue culture supernatants were determined by ELISA kit (R&D Systems).

[3] = test system: peritoneal macrophages; experiment: TNF-α and IL-1β production of cultured peritoneal macrophages exposed to LPS (ELISA); assay type: cell-based, mouse; settings: cIAP2−/− peritoneal macrophages; LPS 0.1 to 1000 ng/ml; 10 and 24 h
Procedure: Spleen- and peritoneal-derived macrophage cell count numbers are shown (A) for cIAP2^−/−, cIAP2^+/− and cIAP2^+/+ mice (n=10). Both cIAP2^−/− and littermate control-derived macrophages stained for the LPS binding surface receptor CD14 (B). The proliferation of B cells for cIAP2^−/− mice and littermate controls of cIAP2^+/+ after culturing with the indicated range of LPS doses (n=6) (C). Cultured macrophages from cIAP2^−/− or littermate control cIAP2^+/+ mice were exposed to LPS for 10 h and subsequently IL-1β (D) or TNF-α (E) levels were measured by ELISA (n=6). Additionally, macrophages were exposed to the indicated range of LPS doses for 24 h and IL-1β (F) or TNF-α (G) levels were determined (n=6). Results are mean±s.d. in triplicate per mouse, P<0.01
This dysfunction may be correlated to a reduced initial number of macrophages, to a block in the LPS-induced signaling pathway, or to an increased apoptotic susceptibility of the cIAP2^−/− macrophages. […]
T and B cells were isolated from mouse lymphoid tissue (spleen) by first mincing and then pressing the tissue through a 10 μm metal mesh and were then counted by using trypan blue exclusion method. […] The resulting cells were then counted by using typan blue exclusion and Diff Quik™ Stain Kit (IMEB INC, San Marcos, Calif.). […] Concentrations of TNF-α and IL-1β, in primary tissue culture supernatants were determined by ELISA kit (R&D Systems).

[4] = cIAP2+/+ mice, Peritoneal cavity, 0 hrs post-LPS
[5] = cIAP2+/+ mice, Peritoneal cavity, 5 hrs post-LPS
[6] = cIAP2+/+ mice, Spleen, 0 hrs post-LPS
[7] = cIAP2+/+ mice, Spleen, 0 hrs post-LPS (first Spleen line)
[8] = cIAP2−/− mice, Peritoneal cavity, 0 hrs post-LPS
[9] = cIAP2−/− mice, Peritoneal cavity, 5 hrs post-LPS
[10] = cIAP2−/− mice, Spleen, 0 hrs post-LPS
[11] = cIAP2−/− mice, Spleen, 0 hrs post-LPS (first Spleen line)

With lipopolysaccharide [LPS] the “Time to demise of the mice” value ([1]; LPS with DGLN, cIAP2−/− mice and control littermates) was < 3 h, the Survival ([1]; cIAP2+/+ mice, LPS 0.5 μg/kg with D-galactosamine 0.6 g/kg i.p.) was 6/6 and the Survival ([1]; cIAP2+/+ mice, LPS 1 μg/kg with D-galactosamine 0.6 g/kg i.p.) was 6/6. The Survival ([1]; cIAP2+/+ mice, LPS 5 μg/kg with D-galactosamine 0.6 g/kg i.p.) was 2/6, the Survival ([1]; cIAP2+/+ mice, LPS 10 μg/kg with D-galactosamine 0.6 g/kg i.p.) was 0/6 and the Survival ([1]; cIAP2+/+ mice, LPS 20 μg/kg with D-galactosamine 0.6 g/kg i.p.) was 0/6. For the same substance, the Survival ([1]; cIAP2−/− mice, LPS 0.5 μg/kg with D-galactosamine 0.6 g/kg i.p.) was 6/6, the Survival ([1]; cIAP2−/− mice, LPS 1 μg/kg with D-galactosamine 0.6 g/kg i.p.) was 6/6 and the Survival ([1]; cIAP2−/− mice, LPS 5 μg/kg with D-galactosamine 0.6 g/kg i.p.) was 2/6. For the same substance, the Survival ([1]; cIAP2−/− mice, LPS 10 μg/kg with D-galactosamine 0.6 g/kg i.p.) was 0/6, the Survival ([1]; cIAP2−/− mice, LPS 20 μg/kg with D-galactosamine 0.6 g/kg i.p.) was 0/6 and the “Percent apoptotic” value [2, 4] was 10 ± 2%. For the same substance, the Percent macrophage [2, 4] was 54 ± 29%, the “Percent apoptotic” value [2, 5] was 66 ± 8% and the Percent macrophage [2, 5] was 31 ± 17%. The “Percent apoptotic” value [2, 6] was 46 ± 8%, the Percent macrophage [2, 6] was 28 ± 5% and the “Percent apoptotic” value [2, 7] was 5 ± 3%. The Percent macrophage [2, 7] was 33 ± 15%, the Percent apoptotic [2, 8] was 15 ± 3% and the “Percent macrophage” value [2, 8] was 41 ± 24%. The Percent apoptotic [2, 9] was 100 ± 3%, the “Percent macrophage” value [2, 9] was 8 ± 11% and the Percent apoptotic [2, 10] was 98 ± 4%. The “Percent macrophage” value [2, 10] was 24 ± 8%, the Percent apoptotic [2, 11] was 2 ± 5% and the “Percent macrophage” value [2, 11] was 24 ± 11%. For the same substance, the “Macrophages positive for Annexin V (apoptotic)” value ([2]; cIAP2−/− mice, peritoneal and splenic macrophages, 5 hours post LPS injection) was ~100% and the “TNF-α and IL-1β levels relative to littermate controls” value [3] was “generated comparable levels of TNF-α and IL-1β”.
